Reference: article PMC9007350, “Aurintricarboxylic acid is a canonical disruptor of the TAZ-TEAD transcriptional complex” (PLoS ONE, 2022)

Tested on: TC/TEAD transcriptional profile in TC-expressing NIH3T3 cells
Assay: Bulk RNA-Seq, differential gene expression and GSEA (TC ATA v. TC DMSO)
Format: cell-based, murine
Details: TC ATA v. TC DMSO
Protocol: NIH3T3 and HEK293 cells were obtained from the American Type Tissue Collection (ATCC, Manassas, VA) and cultured in DMEM containing 10% fetal bovine serum and penicillin/streptomycin. A TEAD dual luciferase reporter assay was performed as previously described. Cells were treated with vehicle control or ATA (10 μM) for 48 h before measuring the luciferase activity or processing the samples for RNA extraction. Each experiment was repeated at least 2-3 times. NIH3T3 cells were used. The extracted RNA (RNeasy Mini, Qiagen) from treated cells was either used for qPCR measurements or sent for bulk RNA-Seq. Sequencing runs were performed on an Illumina HiSeq 4000 sequencer (Genewiz). Subsequent bioinformatics analysis was performed in the Galaxy Project platform. Paired end reads were aligned to the murine genome ([…]2 [27]. Raw count files were generated with featureCounts using a corresponding GTF reference. Differential gene expression analysis was performed with DESeq2 [29]. Transcripts were considered to be differentially expressed if the false discovery rate < 0.05 and Log2FC > 2. When performing differential gene expression for GSEA analysis, the Limma package was used (<5 CPM filtering) with t-scores used for rank statistics. GSEA plots and statistics were generated with FGSEA with custom gene sets. Raw sequencing reads and processed files have been deposited in the GEO repository (data will be uploaded upon manuscript acceptance). The Universal Probe Library probes (Roche) and the associated primer sequences for the qPCR targets are listed below: […]

O=C(O)C1=CC(=C(c2ccc(O)c(C(=O)O)c2)c2ccc(O)c(C(=O)O)c2)C=CC1=O [ATA, aurintricarboxylic acid]
Log2 Fold Change (gene Htra1): -0.7041
Log2 Fold Change (gene Id1): 1.021
Log2 Fold Change (gene Id3): 0.8267
Log2 Fold Change (gene Igfbp4): 0.6017
Log2 Fold Change (gene Il1r1): 0.3663
Log2 Fold Change (gene Il11ra1): 0.412
Log2 Fold Change (gene Il17rd): 0.6209
Log2 Fold Change (gene Ipo7): -0.2967
Log2 Fold Change (gene Lrig1): -0.4157
Log2 Fold Change (gene Ltbp2): -0.4917
Log2 Fold Change (gene Ly6a): 1.151
Log2 Fold Change (gene Mgst1): 1.029
Log2 Fold Change (gene Mocs1): 0.3748
Log2 Fold Change (gene Mrgprf): 0.6309
Log2 Fold Change (gene Mybpc1): 0.8979
Log2 Fold Change (gene Myl3): 1.696
Log2 Fold Change (gene Myoz2): 1.5589
Log2 Fold Change (gene Naaa): 0.4836
Log2 Fold Change (gene Nefm): -1.532
Log2 Fold Change (gene Nes): -0.5782
Log2 Fold Change (gene Nipal1): -0.5524
Log2 Fold Change (gene Nqo1): 0.5252
Log2 Fold Change (gene Nrcam): -1.361
Log2 Fold Change (gene Nrn1): 0.4579
Log2 Fold Change (gene Nrxn2): 0.7098
Log2 Fold Change (gene Odc1): -0.4352
Log2 Fold Change (gene Optn): 0.5559
Log2 Fold Change (gene Osmr): 0.5327
Log2 Fold Change (gene Pcx): 0.5741
Log2 Fold Change (gene Pdgfrb): 0.5085
Log2 Fold Change (gene Pdgfrl): 0.4243
Log2 Fold Change (gene Podnl1): -0.4267
Log2 Fold Change (gene Prrx2): 0.8257
Log2 Fold Change (gene Pvr): -0.3787
Log2 Fold Change (gene Rcan2): 0.6454
Log2 Fold Change (gene Rgs4): 0.757
Log2 Fold Change (gene Rnf150): 0.5435
Log2 Fold Change (gene Sema7a): -1.826
Log2 Fold Change (gene Serpinb9): 0.5861
Log2 Fold Change (gene Serpine2): 0.9636
Log2 Fold Change (gene Setbp1): 0.5242
Log2 Fold Change (gene Slc45a3): 0.6918
Log2 Fold Change (gene Smoc2): 0.9475
Log2 Fold Change (gene Ssbp2): 0.4963
Log2 Fold Change (gene Stard10): 0.7192
Log2 Fold Change (gene Sulf2): 0.5447
Log2 Fold Change (gene Thbs3): 0.6372
Log2 Fold Change (gene Tmem119): 0.9507
Log2 Fold Change (gene Tnnt1): 1.595
Log2 Fold Change (gene Tnxb): 0.5484
Log2 Fold Change (gene Tpm2): 0.3178
Log2 Fold Change (gene Trim30a): 1.18
Log2 Fold Change (gene Trp53inp2): 0.6286
Log2 Fold Change (gene Zfp503): 0.4797
